Results on 13 molecules are retold here after patent US5672582A, “Thrombin inhibitors” (Merck & Co., Inc., priority 1994, dated 1997).

Like-named read-outs stand apart in the source and are kept apart here. Bounds are passed on as bounds.

The target in test [1] is T1, plasma kallikrein (p-Kal) (Homo sapiens, UniProt P03952).
T1 construct: plasma kallikrein (p-Kal)
The test is described as follows: Chromogenic assay, plasma kallikrein. To be noted: Table 3. It counts as biochemical.

In the next test the target is T2, bovine trypsin (Bos taurus, UniProt P00760).
T2 sequence (P00760 24-246): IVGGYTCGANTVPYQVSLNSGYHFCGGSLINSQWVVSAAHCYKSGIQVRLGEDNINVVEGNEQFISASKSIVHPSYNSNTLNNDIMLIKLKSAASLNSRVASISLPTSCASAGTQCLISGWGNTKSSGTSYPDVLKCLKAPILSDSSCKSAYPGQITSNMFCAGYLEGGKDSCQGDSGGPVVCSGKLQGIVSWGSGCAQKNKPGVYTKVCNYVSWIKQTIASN
The test can be described thus: Proteinase inhibition assay, bovine trypsin. It counts as biochemical. The protocol:
(§1) Assays of human α-thrombin and bovine trypsin were performed at 25° C. in 0.05M TRIS buffer pH 7.4, 0.15M NaCl, 0.1% PEG. Trypsin assays also contained 1 mM CaCl2.
In assays wherein rates of hydrolysis of a p-nitroanilide (pna) substrate were determined, a Thermomax 96-well plate reader was used was used to measure (at 405 nm) the time dependent appearance of p-nitroaniline. sar-PR-pna was used to assay human α-thrombin (Km =125 μM) and bovine trypsin (Km =125 μM). "Sar" is the three letter abbreviation for the amino acid sarcosine (N-methylglycine). p-Nitroanilide substrate concentration was determined from measurements of absorbance at 342 nm using an extinction coefficient of 8270 cm^-1 M^-1.
(§2) Times required to achieve equilibration between enzyme and inhibitor were determined in control experiments. Initial velocities of product formation in the absence (Vo) or presence of inhibitor (Vi) were measured. Assuming competitive inhibition, and that unity is negligible compared Km /[S], [S]/e, and [I]/e (where [S], [I], and e respectively represent the total concentrations, of substrate, inhibitor and enzyme), the equilibrium constant (Ki) for dissociation of the inhibitor from the enzyme can be obtained from the dependence of Vo /Vi on [I] shown in equation 1.
Using the assays described above, the following additional embodiments of the invention were evaluated and shown to be selective for inhibiting thrombin. The constants were determined at pH 7.4 in buffer containing 0.05M Tris, 0.15M NaCl, 0.1% PEG-8000 at room temperature.

The next test concerns the target human α-thrombin (Homo sapiens, UniProt P00734). The test is described as follows: Proteinase inhibition assay, human α-thrombin. Format: biochemical. The following applies: for Ratio: Ki trypsin / Ki thrombin. The protocol:
as §1
"Sar" is the three letter abbreviation for the amino acid sarcosine (N-methylglycine). p-Nitroanilide substrate concentration was determined from measurements of absorbance at 342 nm using an extinction coefficient of 8270 cm^-1 M^-1.
Concentrations of stock solutions of Z-GPR-afc were determined from measurements of absorbance at 380 nm (extinction coefficient=12600 cm^-1 M^-1) of the 7-amino-4-trifluoromethyl coumarin produced upon complete hydrolysis of an aliquot of the stock solution by thrombin.
as §2
The constants were determined at pH 7.4 in buffer containing 0.05M Tris, 0.15M NaCl, 0.1% PEG-8000 at room temperature.

The target in the next test is plasmin (Pl) (Homo sapiens, UniProt P00747). The test is described as follows: Chromogenic assay, plasmin. It counts as biochemical. The following applies: Table 3.
Sequence of plasmin (Pl) (P00747 581-810 limits assumed, species assumed): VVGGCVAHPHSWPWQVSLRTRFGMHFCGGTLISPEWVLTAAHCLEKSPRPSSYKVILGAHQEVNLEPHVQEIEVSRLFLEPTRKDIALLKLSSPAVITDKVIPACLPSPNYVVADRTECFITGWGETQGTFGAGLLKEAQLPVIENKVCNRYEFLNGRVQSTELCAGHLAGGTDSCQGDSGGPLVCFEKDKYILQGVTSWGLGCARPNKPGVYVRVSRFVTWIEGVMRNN
Sequence of plasmin (Pl) (P00747 97-580 limits assumed, species assumed): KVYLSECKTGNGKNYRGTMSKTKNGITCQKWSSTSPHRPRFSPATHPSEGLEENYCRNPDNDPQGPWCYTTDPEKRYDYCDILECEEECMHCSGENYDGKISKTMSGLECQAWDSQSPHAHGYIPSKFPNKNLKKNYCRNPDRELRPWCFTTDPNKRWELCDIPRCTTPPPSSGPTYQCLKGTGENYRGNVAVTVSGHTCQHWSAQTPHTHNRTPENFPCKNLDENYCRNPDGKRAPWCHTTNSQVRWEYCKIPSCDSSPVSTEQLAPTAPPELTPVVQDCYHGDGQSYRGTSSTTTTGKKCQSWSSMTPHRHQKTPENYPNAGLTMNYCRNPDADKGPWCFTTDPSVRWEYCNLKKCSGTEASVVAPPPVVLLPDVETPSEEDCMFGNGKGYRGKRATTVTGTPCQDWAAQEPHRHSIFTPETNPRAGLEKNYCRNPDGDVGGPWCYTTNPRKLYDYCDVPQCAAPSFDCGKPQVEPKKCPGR
Test [2] has as its target tissue plasminogen activator (t-PA) (Homo sapiens, UniProt P00750). The test can be described thus: Chromogenic assay, tissue plasminogen activator. Format: biochemical. To be noted: Table 3, read-out: Ki (nM) tPA.
The next test concerns the target T3, Factor Xa (fXa) (Homo sapiens, UniProt P00742).
T3 construct: Factor Xa (fXa), plasma kallikrein (p-Kal), plasmin (Pl)
The test can be described thus: Chromogenic assay, Factor Xa. Format: biochemical. The following applies: Table 3.

Test [3] concerns the target activated protein C (APC) (Homo sapiens, UniProt P04070). The test can be described thus: Chromogenic assay, activated protein C. It counts as biochemical. To be noted: Table 3.
For test [4], the system named is FeCl3 induced arterial thrombosis in rats. The test is described as follows: Rat ferric chloride assay. It counts as in vivo. The protocol:
In the assay, male Sprague-Dawley rats (body weights 200-350 grams) were anesthetized with dial-urethane solution (0.1 ml/100 gm body weight i.p.), and a lateral tail vein was cannulated with a 23 gauge needle connected to a 12 inch length of PE50 robing. The robing was attached to a 3-way valve by a tubing adapter. Saline (control) or test compound, as appropriate, was administered via the tail vein catheter. A tracheostomy was performed with a 0.75 inch length of PE205 tubing. The right carotid artery was exposed and a 1.3 mm diameter Doppler flow probe was placed on the vessel. Body temperature was maintained at 37° C. using a heat lamp.
Rats (8-10/group) were randomized to continuous intravenous infusions of saline or test compound administered via the tail vein at a rate of 0.028 ml/min. Treatment infusions were initiated 60 min before the placement of a 3 mm square piece of Whatman No. 1 filter paper saturated with 35% FeCl3 onto the exposed carotid artery distal to the flow probe. […] Time to occlusion was defined as the time from application of FeCl3 to thrombotic occlusion of the vessel.

Setting [5] is: Table 2, pH 7.4, 0.05M Tris, 0.15M NaCl, 0.1% PEG-8000, room temperature, read-out: Ki (nM) Trypsin.
Setting [6] is: Table 2, pH 7.4, 0.05M Tris, 0.15M NaCl, 0.1% PEG-8000, room temperature, read-out: Ki (nM) Thrombin.
Setting [7] is: Table 1, 25° C., 0.05M TRIS pH 7.4, 0.15M NaCl, 0.1% PEG, 1 mM CaCl2, read-out: Ki (μM) Trypsin.
The mark [8] stands for this setting: Table 1, 25° C., 0.05M TRIS pH 7.4, 0.15M NaCl, 0.1% PEG, read-out: Ki (μM) Thrombin.

T3 sequence (P00742 235-488 limits assumed): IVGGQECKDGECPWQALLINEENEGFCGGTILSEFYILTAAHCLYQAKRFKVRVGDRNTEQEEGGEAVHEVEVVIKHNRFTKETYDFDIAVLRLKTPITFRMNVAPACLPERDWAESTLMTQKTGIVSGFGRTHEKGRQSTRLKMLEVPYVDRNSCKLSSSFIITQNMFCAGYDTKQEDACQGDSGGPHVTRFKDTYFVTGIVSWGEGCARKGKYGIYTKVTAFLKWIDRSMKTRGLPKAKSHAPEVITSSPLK
T3 sequence (P00742 41-179 limits assumed): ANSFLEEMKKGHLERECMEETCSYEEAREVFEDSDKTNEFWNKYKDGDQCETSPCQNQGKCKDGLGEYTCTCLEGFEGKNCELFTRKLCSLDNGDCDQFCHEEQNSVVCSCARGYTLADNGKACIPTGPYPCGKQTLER
T1 sequence (P03952 391-638 limits assumed, species assumed): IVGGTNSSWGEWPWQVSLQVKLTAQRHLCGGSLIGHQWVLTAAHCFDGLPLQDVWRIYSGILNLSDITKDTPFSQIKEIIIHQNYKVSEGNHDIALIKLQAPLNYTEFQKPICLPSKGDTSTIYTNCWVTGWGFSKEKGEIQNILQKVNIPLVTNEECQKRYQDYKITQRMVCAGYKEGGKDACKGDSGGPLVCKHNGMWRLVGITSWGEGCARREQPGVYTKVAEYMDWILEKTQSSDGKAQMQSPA
T1 sequence (P03952 20-390 limits assumed, species assumed): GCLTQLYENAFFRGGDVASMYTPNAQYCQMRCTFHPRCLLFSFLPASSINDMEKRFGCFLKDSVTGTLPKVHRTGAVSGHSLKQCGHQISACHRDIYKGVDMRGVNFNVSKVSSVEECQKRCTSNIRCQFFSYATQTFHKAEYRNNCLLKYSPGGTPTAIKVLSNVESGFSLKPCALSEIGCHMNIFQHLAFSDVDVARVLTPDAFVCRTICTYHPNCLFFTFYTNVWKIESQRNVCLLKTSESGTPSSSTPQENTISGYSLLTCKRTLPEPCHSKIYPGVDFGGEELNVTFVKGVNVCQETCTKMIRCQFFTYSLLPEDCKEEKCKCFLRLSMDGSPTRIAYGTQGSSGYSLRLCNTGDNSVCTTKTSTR
Sequence of activated protein C (APC) (P04070 212-461 limits assumed): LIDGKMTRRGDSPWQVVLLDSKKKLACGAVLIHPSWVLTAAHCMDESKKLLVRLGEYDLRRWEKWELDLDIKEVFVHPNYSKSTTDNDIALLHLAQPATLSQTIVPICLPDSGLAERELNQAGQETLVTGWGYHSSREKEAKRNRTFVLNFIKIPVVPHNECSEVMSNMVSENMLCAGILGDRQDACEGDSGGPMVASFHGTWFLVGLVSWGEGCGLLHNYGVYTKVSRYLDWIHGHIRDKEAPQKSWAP
Sequence of activated protein C (APC) (P04070 43-197 limits assumed): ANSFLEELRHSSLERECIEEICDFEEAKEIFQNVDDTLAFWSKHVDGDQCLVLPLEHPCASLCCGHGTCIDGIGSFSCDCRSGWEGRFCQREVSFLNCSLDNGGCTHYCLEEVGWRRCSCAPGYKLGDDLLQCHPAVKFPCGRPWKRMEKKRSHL
Sequence of tissue plasminogen activator (t-PA) (P00750 36-562, species assumed): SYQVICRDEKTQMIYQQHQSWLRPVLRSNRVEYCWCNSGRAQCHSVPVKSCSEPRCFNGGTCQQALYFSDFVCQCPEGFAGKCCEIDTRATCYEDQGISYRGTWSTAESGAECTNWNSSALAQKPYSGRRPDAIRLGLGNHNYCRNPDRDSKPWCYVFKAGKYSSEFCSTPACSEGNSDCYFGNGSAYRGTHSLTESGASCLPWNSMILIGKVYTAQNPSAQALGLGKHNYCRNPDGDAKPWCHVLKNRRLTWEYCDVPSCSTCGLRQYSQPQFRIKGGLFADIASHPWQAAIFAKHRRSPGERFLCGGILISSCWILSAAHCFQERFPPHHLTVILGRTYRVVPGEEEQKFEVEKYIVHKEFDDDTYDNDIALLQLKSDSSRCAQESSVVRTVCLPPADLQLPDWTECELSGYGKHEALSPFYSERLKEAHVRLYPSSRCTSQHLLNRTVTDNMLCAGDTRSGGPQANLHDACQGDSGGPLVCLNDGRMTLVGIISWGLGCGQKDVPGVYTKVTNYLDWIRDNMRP

Take `CNC(=O)C(=O)C(NC(=O)C1CCCN1C(=O)C(Cc1ccc(Cl)c(Cl)c1)NC)C1CCC(N)CC1` (centres unmarked) [xii]: the inhibitory constant (Ki) (in general, a measure of affinity in units of concentration, obtained from inhibition or displacement) in test [1] was over 10000 nM; at bovine trypsin (setting [5]), 660 nM; at human α-thrombin (setting [6]), 0.025 nM; at plasmin (Pl), over 10000 nM; in test [2], over 10000 nM; at Factor Xa (fXa), 2300 nM. The same molecule had a Ki in test [3] of over 10000 nM.
`CNC(Cc1ccccc1)C(=O)N1CCCC1C(=O)NC(C(=O)C(=O)O)C1CCC(N)CC1` (racemic) [3-3, H-NMe-D-Phe-Pro-t-DL-AcgY[COCO]--OH]: the Ki in test [1] was 7000 nM; on bovine trypsin (setting [7]), 51 nM; on human α-thrombin (setting [8]) it was 0.05 nM; on plasmin (Pl), over 10000 nM; in test [2], over 10000 nM; on Factor Xa (fXa) it was over 10000 nM. In test [3], this molecule showed an inhibition constant Ki of over 10000 nM. Besides, the Ratio at human α-thrombin (Table 1) is recorded as 1000. Moreover, the Incidence of occlusion in test [4] (10 μg/kg/min i.v. infusion) is reported as 3/4; in test [4] (20 μg/kg/min i.v. infusion), 0/4; in test [4] (50 μg/kg/min i.v. infusion), 0/4. Also, the “Minutes to occulsion of those occluding” value in test [4] (10 μg/kg/min i.v. infusion) lay within 22 to 24 min.
As to `CNC(=O)C(=O)C(CC1CCC(N)CC1)NC(=O)C1CCCN1C(=O)C(Cc1ccccc1)NC` (centres unmarked) [vi], the Ki turned out to be 1440 nM on bovine trypsin (setting [7]) and 52 nM at human α-thrombin (setting [8]). Besides, the Ratio at human α-thrombin (Table 1) is 28.
For `CNC(Cc1ccccc1)C(=O)N1CCCC1C(=O)NC(C(=O)C(=O)NCc1ccccc1)C1CCC(N)CC1` (mixture of isomers) [xvi], the Ki in test [1] is over 10000 nM; on bovine trypsin (setting [5]), 120 nM; on human α-thrombin (setting [6]), 0.6 nM; on plasmin (Pl), over 10000 nM; in test [2], over 10000 nM; at Factor Xa (fXa) it was over 10000 nM. In test [3], this molecule came in with a Ki of over 10000 nM.
In the case of `CNC(=O)C(=O)C(NC(=O)C1CCCN1C(=O)CCC1CCCCC1)C1CCC(N)CC1` (centres unmarked) [xiii], the Ki in test [1] is over 10000 nM; on bovine trypsin (setting [5]), 4000 nM; on human α-thrombin (setting [6]) it was 2.2 nM; at plasmin (Pl), over 10000 nM; in test [2] it was over 10000 nM; on Factor Xa (fXa), over 10000 nM. Moreover, the Ki in test [3] was over 10000 nM.
As to `CNC(=O)C(=O)C(NC(=O)C1CCCN1C(=O)C(CC1CCCCC1)NC)C1CCC(N)CC1` (centres unmarked) [x], the Ki in test [1] is over 10000 nM; on bovine trypsin (setting [5]), 310 nM; at human α-thrombin (setting [6]), 0.07 nM; at plasmin (Pl), 6000 nM; in test [2], over 10000 nM; at Factor Xa (fXa), 3000 nM. In test [3], this molecule yielded a Ki of over 10000 nM.
For `CNC(=O)C(=O)C(NC(=O)C1CCCN1C(=O)CC(c1ccccc1)c1ccccc1)C1CCC(N)CC1` (mixture of isomers) [xv], the Ki in test [1] is over 10000 nM; on bovine trypsin (setting [5]), 2000 nM; at human α-thrombin (setting [6]), 0.03 nM; at plasmin (Pl), over 10000 nM; in test [2], over 10000 nM; on Factor Xa (fXa) it was over 10000 nM. The Ki in test [3] is over 10000 nM.
In the case of `CNC(=O)C(=O)C(NC(=O)C1CCCN1C(=O)C(Cc1ccc2ccccc2c1)NC)C1CCC(N)CC1` (centres unmarked) [xiv], the inhibition constant (Ki) is over 10000 nM in test [1]; 2100 nM at bovine trypsin (setting [5]); 0.09 nM at human α-thrombin (setting [6]); over 10000 nM on plasmin (Pl); over 10000 nM in test [2]; 9000 nM at Factor Xa (fXa). Further, the Ki in test [3] is over 10000 nM.
With `CNC(Cc1ccccc1)C(=O)N1CCCC1C(=O)NC(C(=O)C(=O)NC1CC1)C1CCC(N)CC1` (mixture of isomers) [xvii], the inhibitory constant (Ki) in test [1] is 9000 nM; on bovine trypsin (setting [5]) it was 120 nM; on human α-thrombin (setting [6]) it was 0.07 nM; at plasmin (Pl) it was over 10000 nM; in test [2], over 10000 nM; at Factor Xa (fXa), over 10000 nM. This molecule yielded a Ki in test [3] of over 10000 nM.
With `CNC(=O)C(=O)C(NC(=O)C1CCCN1C(=O)CCc1ccccc1)C1CCC(N)CC1` (mixture of isomers) [ix], the Ki in test [1] was over 10000 nM; at bovine trypsin (setting [5]), over 10000 nM; on human α-thrombin (setting [6]), 4 nM; at plasmin (Pl), over 10000 nM; in test [2] it was over 10000 nM; on Factor Xa (fXa), over 10000 nM. For the same molecule, in test [3], the Ki is over 10000 nM.
With `CNC(=O)C(=O)C(NC(=O)C1CCCN1C(=O)CCc1ccc(Cl)c(Cl)c1)C1CCC(N)CC1` (centres unmarked) [xi], the Ki in test [1] is over 10000 nM; on bovine trypsin (setting [5]), over 10000 nM; on human α-thrombin (setting [6]) it was 0.4 nM; at plasmin (Pl), over 10000 nM; in test [2] it was over 10000 nM; at Factor Xa (fXa) it was over 10000 nM. The same molecule came in with a Ki in test [3] of over 10000 nM.
Turning to `CNC(Cc1ccccc1)C(=O)N1CCCC1C(=O)NC(C(=O)C(=O)N1CCC1)C1CCC(N)CC1` (mixture of isomers) [xviii], the inhibition constant (Ki) in test [1] was over 10000 nM; at bovine trypsin (setting [5]), 760 nM; at human α-thrombin (setting [6]), 0.04 nM; at plasmin (Pl), over 10000 nM; in test [2] it was over 10000 nM; on Factor Xa (fXa) it was over 10000 nM. Also, the Ki in test [3] was over 10000 nM.
For `CNC(=O)C(=O)C(NC(=O)C1CCCN1C(=O)C(Cc1ccccc1)NC)C1CCC(N)CC1` [4-3, H-NMe-D-Phe-Pro-t-D-Acg.PSI.[COCO]--NHMe], the Ki at bovine trypsin (Table 1, 25° C., 0.05M TRIS pH 7.4, 0.15M NaCl, 0.1% PEG, 1 mM CaCl2, listed as drawing 21, read-out: Ki (μM) Trypsin) is 7000 nM.
